Measurements as given in patent US20110070258A1, “METHOD OF SLOWING THE AGING PROCESS BY ACTIVATING SIRTUIN ENZYMES” (Polifenoles Naturales, S.L., priority 2009, published 2011).

How the values were obtained:
[1] = Energy expenditure by indirect calorimetry in obese subjects (dose-response clinical trial); type: in vivo, human; details: for Energy Expenditure, Baseline: n = 4; for Energy Expenditure, Baseline / Energy Expenditure, 2 weeks / Energy Expenditure, 5 weeks / Energy Expenditure, 10 weeks / Energy Expenditure, 16 weeks / Total Energy Expenditure, to (16 weeks) / Total Energy Expenditure, From (baseline) / Change in Total Energy Expenditure, Net: NAFLD; for Change in Total Energy Expenditure, Net: baseline to 16 weeks
Method: Energy expenditure rate (EER) was measured in patients by indirect calorimetry. Oxygen was measured with an electrochemical oxygen sensor, and carbon dioxide was measured with an infrared carbon dioxide sensor (Ametec Carbon Dioxide Analyzer). Before each measurement, the instrument was calibrated with a mixture of O2 and CO2 gases. Rates of oxygen consumption (O2) and carbon dioxide production (CO2) were calculated and printed out at 1-min intervals. Energy expenditure was derived from O2 and CO2 values.
Obese subjects diagnosed with NAFLD and with apparently healthy liver (HL) were matched in pairs based on age, body weight and body fat mass and were randomly divided into Experimental NAFLD group (n=36), Placebo NAFLD (n=36), Experimental HL (n=19) and Placebo-HL group (n=19). Subjects were randomly assigned, in equal numbers, to the phytomedicine experimental groups and the Placebo control group, using the Simple Randomization Procedure. Their daily dietary intake was restricted to 1800±100 kcals, of which 50±5% was in the form of carbohydrates, 30±5% from protein, and 20±5% from fat. Subjects were also instructed to consume all the foods and beverages designated by dieticians and provided by the Institute, and to eat no other food or high calories beverages. […] During the clinical phase, subjects were required to visit a designated hospital three times a week for physiological and biochemical analysis. Institute provided all foods and beverages by designated dieticians and labeled as B, L, and D for breakfast, lunch and dinner, respectively.
The brown marine vegetable extract was suspended in 100 mg cold-pressed pomegranate seed oil. The pomegranate seed oil was standardized to contain a minimum of 70% punicic acid, for a total weight of 200 mg/capsule. The content of fucoxanthin in Experimental Sample (Xanthigen) was analyzed using high performance liquid chromatography method, and the fatty acids were analyzed by Gas Chromatography method. The HPLC profile of the brown marine vegetable extract is shown in FIG. 2A, along with an HPLC chromatogram of pure fucoxanthin for comparison in FIG. 2B.
Energy expenditure (EE) and substrate oxidations were measured by indirect calorimetry as described previously (Ranneries et al., 1998). Oxygen was measured with an electrochemical oxygen sensor, and carbon dioxide was measured by an infrared carbon dioxide sensor (Ametec Carbon Dioxide Analyzer). Calculations of EE and substrate oxidation rates were performed as previously described (Astrup et al., 1991). Protein oxidation was assumed to be constant and amounting to 15% of EE. […] The reliability was assessed by the coefficient of variation on resting energy expenditure repeated every week.

Sirt1 = Sirt1 expression by Western Blot in differentiated 3T3-L1 adipocytes; type: cell-based, mouse
Method: The effect of fucoxanthin/punicic acid mixtures on Sirt1 expression in murine cells was studied. Mouse 3T3-L1 pre-adipocytes purchased from the American Type Culture Collection (Rockville, Md.) were grown in Dubecco's modified Eagle's medium (DMEM) (Gibco BRL, Grand Island, N.Y.) supplemented with 2 mM glutamine (GIBCO BRL), 1% penicillin/streptomycin (10000 units of penicillin/mL and 10 mg streptomycin/mL) and 10% fetal bovine serum at 37° C. under a humidified 5% CO2 atmosphere. For differentiation of 3T3-L1 pre-adipocytes, cells were seeded into 6-well culture plates (2×10^4/mL) and cultured as described above. […] The fucoxanthin extract used in this study of Sirt1 expression in murine cells was an extract of the complete plant of Undaria […]. The extract contains 0.8% by weight fucoxanthin and 30% by weight marine vegetable oil. The fucoxanthin extract used may further contain ≦10.0 wt. % palm oil. The pomegranate seed oil used in this study contains 70 wt. % punicic acid, and is an extract of the seeds of the Punica granatum plant. […], the fucoxanthin/punicic acid mixture used in this study, contains 50 wt. % of the fucoxanthin extract, and 50 wt. % of the pomegranate seed oil. […] The total proteins are measured by Bio-Rad Protein Assay (Bio-Rad Laboratories, Munich, Germany). […]

Question: Which “increase in daily energy expenditure rate” value ([1]; 25 mg fucoxanthin alone) does the source give for `CC(=O)O[C@H]1CC(C)(C)C(=C=C/C(C)=C/C=C/C(C)=C/C=C/C=C(C)/C=C/C=C(\C)C(=O)C[C@@]23O[C@]2(C)C[C@@H](O)CC3(C)C)[C@](C)(O)C1` [Fucoxanthin, fucoxanthin] here?
Answer: 1152 ± 290 kJ/day

Question: And the “Energy Expenditure, Baseline” value ([1]; Fucoxanthin 10 mg per day)?
Answer: 5.82 ± 0.18 kJ/min

Question: And the “Energy Expenditure, 2 weeks” value ([1]; Fucoxanthin 10 mg per day)?
Answer: 5.69 ± 0.21 kJ/min

Question: And the “Energy Expenditure, 5 weeks” value ([1]; Fucoxanthin 10 mg per day)?
Answer: 5.93 ± 0.15 kJ/min

Question: And the “Energy Expenditure, 10 weeks” value ([1]; Fucoxanthin 10 mg per day)?
Answer: 5.69 ± 0.21 kJ/min

Question: What about the “Energy Expenditure, 16 weeks” value ([1]; Fucoxanthin 10 mg per day) of the same compound?
Answer: 5.98 ± 0.18 kJ/min

Question: And the “Total Energy Expenditure, to (16 weeks)” value ([1]; Fucoxanthin 10 mg per day)?
Answer: 8611 kJ/24 h

Question: And the “Total Energy Expenditure, From (baseline)” value ([1]; Fucoxanthin 10 mg per day)?
Answer: 8381 kJ/24 h

Question: What about the “Change in Total Energy Expenditure, Net” value ([1]; Fucoxanthin 10 mg per day, NS vs placebo) of the same compound?
Answer: Net 230 ± 147 kJ/24 h

Question: And the “Energy Expenditure, Baseline” value ([1]; Fucoxanthin 15 mg per day)?
Answer: 5.85 ± 0.27 kJ/min

Question: What about the “Energy Expenditure, 2 weeks” value ([1]; Fucoxanthin 15 mg per day) of the same compound?
Answer: 5.89 ± 0.14 kJ/min

Question: What about the “Energy Expenditure, 5 weeks” value ([1]; Fucoxanthin 15 mg per day) of the same compound?
Answer: 5.98 ± 0.17 kJ/min

Question: And the “Energy Expenditure, 10 weeks” value ([1]; Fucoxanthin 15 mg per day)?
Answer: 6.11 ± 0.21 kJ/min

Question: And the “Energy Expenditure, 16 weeks” value ([1]; Fucoxanthin 15 mg per day)?
Answer: 6.39 ± 0.17 kJ/min

Question: And the “Total Energy Expenditure, to (16 weeks)” value ([1]; Fucoxanthin 15 mg per day)?
Answer: 9202 kJ/24 h

Question: What about the “Total Energy Expenditure, From (baseline)” value ([1]; Fucoxanthin 15 mg per day) of the same compound?
Answer: 8424 kJ/24 h

Question: And the “Change in Total Energy Expenditure, Net” value ([1]; Fucoxanthin 15 mg per day, p < 0.05 vs placebo)?
Answer: Net 778 ± 260 kJ/24 h

Question: What about the “Energy Expenditure, Baseline” value ([1]; Fucoxanthin 25 mg per day) of the same compound?
Answer: 5.92 ± 0.16 kJ/min

Question: What about the “Energy Expenditure, 2 weeks” value ([1]; Fucoxanthin 25 mg per day) of the same compound?
Answer: 6.02 ± 0.23 kJ/min

Question: What about the “Energy Expenditure, 5 weeks” value ([1]; Fucoxanthin 25 mg per day) of the same compound?
Answer: 5.92 ± 0.27 kJ/min

Question: What about the “Energy Expenditure, 10 weeks” value ([1]; Fucoxanthin 25 mg per day) of the same compound?
Answer: 6.29 ± 0.31 kJ/min

Question: And the “Energy Expenditure, 16 weeks” value ([1]; Fucoxanthin 25 mg per day)?
Answer: 6.72 ± 0.22 kJ/min

Question: And the “Total Energy Expenditure, to (16 weeks)” value ([1]; Fucoxanthin 25 mg per day)?
Answer: 9677 kJ/24 h

Question: And the “Total Energy Expenditure, From (baseline)” value ([1]; Fucoxanthin 25 mg per day)?
Answer: 8525 kJ/24 h

Question: And the “Change in Total Energy Expenditure, Net” value ([1]; Fucoxanthin 25 mg per day, p < 0.05 vs placebo)?
Answer: Net 1152 ± 290 kJ/24 h

Question: What about the “Energy Expenditure, Baseline” value ([1]; Fucoxanthin 50 mg per day) of the same compound?
Answer: 6.04 ± 0.24 kJ/min

Question: What about the “Energy Expenditure, 2 weeks” value ([1]; Fucoxanthin 50 mg per day) of the same compound?
Answer: 5.91 ± 0.31 kJ/min

Question: And the “Energy Expenditure, 5 weeks” value ([1]; Fucoxanthin 50 mg per day)?
Answer: 6.32 ± 0.22 kJ/min

Question: And the “Energy Expenditure, 10 weeks” value ([1]; Fucoxanthin 50 mg per day)?
Answer: 6.92 ± 0.31 kJ/min

Question: What about the “Energy Expenditure, 16 weeks” value ([1]; Fucoxanthin 50 mg per day) of the same compound?
Answer: 7.37 ± 0.35 kJ/min

Question: What about the “Total Energy Expenditure, to (16 weeks)” value ([1]; Fucoxanthin 50 mg per day) of the same compound?
Answer: 10613 kJ/24 h

Question: What about the “Total Energy Expenditure, From (baseline)” value ([1]; Fucoxanthin 50 mg per day) of the same compound?
Answer: 8698 kJ/24 h

Question: And the “Change in Total Energy Expenditure, Net” value ([1]; Fucoxanthin 50 mg per day, p < 0.001 vs placebo)?
Answer: Net 1915 ± 246 kJ/24 h

Question: And the “EER” value ([1]; fucoxanthin dose of 1.6 mg per se)?
Answer: not effective per se

Question: What about the “minimum effective dose (increase of EER), stand alone” value ([1]; obese subjects, stand alone) of the same compound?
Answer: 2.4 mg

Question: For `CCCC\C=C/C=C/C=C\CCCCCCCC(=O)O` [punicic acid, 9-cis, 11-trans conjugated linolenic acid (9c,11t,13c-CLNA)], which “Effect on Sirt1 protein levels / expression” value (Sirt1) is on record?
Answer: suppresses Sirt1 expression
